55 molecules from the OPERA property sets (Mansouri et al. 2018) can be followed below.

One may read the melting point as the temperature of the solid-liquid transition. Usually boiling point stands for the temperature at which the vapour pressure of the liquid equals the pressure above it.

`CN(C)CCCN1c2ccccc2Sc2ccc(Cl)cc21.Cl` yielded a melting point of 195 °C.

As to `C[C@H]1CCC(=O)N1`, the boiling point stood at 248 °C and the melting point was 43 °C.

For the molecule `Cc1ccc(C)c(O)c1C`, the boiling point was 226 °C, the log10 vapour pressure (mmHg) is -1.46, the melting point was found to be 58 °C and the ready biodegradability result was “not readily biodegradable”.

`CC(C)(C)OC(=O)CC(=O)OC(C)(C)C` returned a melting point of -6 °C.

Molecule `CCC(Oc1c(I)cc(I)cc1I)C(=O)O` (stereo not given) had a melting point of 124 °C.

Consider `CC(C)OCCO`, for which the boiling point was determined as 145 °C, the log10 Henry constant (atm·m³/mol) was -6.04 and the ready biodegradability result was “not readily biodegradable”.

For `Fc1ccc(N2CCNCC2)cc1`, the melting point turned out to be 31.5 °C.

Turning to `O=C(Nc1ncc([N+](=O)[O-])s1)c1cccs1`, the melting point is 256 °C.

Take `CC(C(=O)O)c1ccc2c(c1)[nH]c1ccc(Cl)cc12` (stereo not given): the melting point amounted to 198 °C.

In the case of `Nc1ccc(Cl)c(Cl)c1Cl`, the boiling point is 292 °C, the log10 Koc (L/kg) was 2.6 and the melting point worked out at 73 °C.

For `c1cnc2c(c1)CCCC2`, the boiling point was found to be 222 °C.

`c1ccc(-c2ccc3ccccc3n2)cc1` gave a boiling point of 363 °C and a melting point of 86 °C.

In turn, `O=Cc1ccc(O)c(O)c1O` registered a melting point of 160 °C.

Molecule `C1=COCCC1` yielded a boiling point of 86 °C and a melting point of -70 °C.

Molecule `Cc1cc2c(cc1C)CCCC2` gave a boiling point of 252 °C and a melting point of 10 °C.

`O=[N+]([O-])c1cc(Cl)ccc1Cl`: the boiling point amounted to 267 °C, the log10 Henry constant (atm·m³/mol) was -4.92, the melting point stood at 56 °C and the ready biodegradability result was “not readily biodegradable”.

In the case of `CCCC=CCO`, the boiling point amounted to 157 °C.

Molecule `Cc1n[nH]c(=O)[nH]c1=O` showed a melting point of 211 °C.

On to `O=C(O)CCc1cc(I)c(Oc2ccc(O)c(I)c2)c(I)c1`, for which the melting point turned out to be 200 °C.

`Clc1cc(Cl)c(-c2ccccc2)c(Cl)c1`: the log10 vapour pressure (mmHg) was -3.15.

Turning to `COc1ccc(C=Cc2ccc(OC)cc2)cc1`, the melting point worked out at 214 °C.

For the molecule `CCOC(=O)C(OCC)OCC`, the boiling point was 199 °C.

The molecule `O=C(O)c1ccc(F)cc1` displayed a melting point of 185 °C.

For the molecule `CCCS(=O)CCC`, the melting point was 22.5 °C.

As to `CCCC(=O)OCC`, the boiling point stood at 122 °C, the log10 Koa is 3.56, the log10 vapour pressure (mmHg) was 1.11 and the melting point is -98 °C.

Consider `Cc1cc(O)c(C(C)(C)C)cc1C`, for which the boiling point came out at 258 °C and the melting point was found to be 46 °C.

The molecule `CCOC(=O)Cc1[nH]nc2ccc(Cl)cc12` had a melting point of 77 °C.

`C[C@]12CCC(=O)C=C1CC[C@@H]1[C@@H]2C(=O)C[C@@]2(C)[C@H]1CC[C@]2(O)C(=O)CO` displayed a melting point of 222 °C.

`CC(=O)CC(=O)OCCCl`: the boiling point came to 198 °C.

`COc1nccnc1N(C(C)=O)S(=O)(=O)c1ccc(N)cc1` registered a melting point of 199 °C.

On to `[O-][n+]1ccccc1`, for which the melting point stood at 65.5 °C.

Molecule `COc1ccccc1NC(N)=S` registered a melting point of 156 °C.

Molecule `Clc1cc(Cl)c2cc(Cl)c(Cl)c(Cl)c2c1` returned a log10 Koa of 8.82 and a log10 vapour pressure (mmHg) of -5.68.

In turn, `CC(=NO)C(C)=NO` came in with a melting point of 246 °C.

The molecule `C[C@@H]1O[C@@H](O)[C@H](O)[C@H](O)[C@H]1O` displayed a melting point of 140 °C.

Molecule `O=C1NCNC1(c1ccccc1)c1ccccc1` registered a melting point of 183 °C.

Regarding `Cc1cc(Cl)ccc1N`, the boiling point is 244 °C, the melting point came to 30.3 °C and the ready biodegradability result is reported as “not readily biodegradable”.

For `CCCC(C)C(=O)Nc1ccc(C)c(Cl)c1` (stereo not given), the log10 Koc (L/kg) turned out to be 2.76 and the melting point amounted to 85 °C.

`COc1ccc(C[C@H]2c3cc(OC)c(OC)cc3CCN2C)cc1OC` displayed a melting point of 89 °C.

As for `O=C(O)c1ccccc1I`, the melting point amounted to 163 °C and the ready biodegradability entry was “not readily biodegradable”.

For the molecule `Nc1ccc(S(=O)(=O)Nc2ccccn2)cc1`, the melting point was determined as 192 °C.

On to `Clc1c(Cl)c(Cl)c2nccnc2c1Cl`, for which the melting point is 190 °C.

Consider `O=C1CC(=O)NC(=O)N1`, for which the log10 vapour pressure (mmHg) was -7.82, the melting point came out at 248 °C and the ready biodegradability result is “readily biodegradable”.

In the case of `C[C@@H]1CCC[C@H](C)N1`, the boiling point was determined as 127 °C and the ready biodegradability result is given as “not readily biodegradable”.

Consider `OC(c1ccccc1)(C(F)(F)F)C(F)(F)F`, for which the boiling point amounted to 160 °C.

Turning to `N#CCc1ccccc1C(F)(F)F`, the melting point is 33 °C.

In the case of `CC(O)C1CCCCC1` (stereo not given), the boiling point came out at 189 °C.

`Cc1cc(C)nc(C)c1` showed a boiling point of 171 °C, a log10 vapour pressure (mmHg) of 0.298 and a melting point of -46 °C.

The molecule `C=CCI` had a boiling point of 103 °C and a melting point of -99.3 °C.

Regarding `CC(C)c1cccc(C(C)C)c1O`, the boiling point came out at 256 °C, the melting point is 18 °C and the ready biodegradability result is reported as “not readily biodegradable”.

Turning to `CCCCCCCCCCCl`, the boiling point was determined as 223 °C, the log10 vapour pressure (mmHg) was -2.01 and the melting point was -31.3 °C.

As for `O=C1c2c(Br)c(Br)c(Br)c(Br)c2C(=O)N1CCN1C(=O)c2c(Br)c(Br)c(Br)c(Br)c2C1=O`, the melting point is 445 °C.

As to `CC(Cl)(Cl)CCl`, the boiling point was 124 °C.

As to `N#Cc1ccc2[nH]ccc2c1`, the melting point turned out to be 107 °C.

Regarding `COC(=O)c1ccccc1C(=O)c1ccccc1`, the boiling point came out at 351 °C, the melting point came to 52 °C and the ready biodegradability entry is “not readily biodegradable”.
